According to PubChem BioAssay (NCI):
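Dose response: 5 concentrations. Exposure: 48 h. Format: 96-well plates. Endpoint: linear interpolation; highest concentration if not reached. TGI is the concentration that stops growth completely.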

Columns and labels:
Test in all cases: inhibition of tumour cell growth, NCI panel, 48 h
786-0 renal = test system: 786-0 renal
A498 renal = test system: A498 renal
A549 NSCLC = test system: A549 NSCLC
ACHN renal = test system: ACHN renal
CCRF-CEM leukemia = test system: CCRF-CEM leukemia
COLO 205 colon = test system: COLO 205 colon
DLD-1 colon = test system: DLD-1 colon
DMS 114 small cell lung = test system: DMS 114 small cell lung
DMS 273 small cell lung = test system: DMS 273 small cell lung
EKVX NSCLC = test system: EKVX NSCLC
HCC-2998 colon = test system: HCC-2998 colon
HCT-116 colon = test system: HCT-116 colon
HCT-15 colon = test system: HCT-15 colon
HL-60(TB) leukemia = test system: HL-60(TB) leukemia
HOP-18 NSCLC = test system: HOP-18 NSCLC
HOP-62 NSCLC = test system: HOP-62 NSCLC
HOP-92 NSCLC = test system: HOP-92 NSCLC
HT29 colon = test system: HT29 colon
IGROV1 ovarian = test system: IGROV1 ovarian
K-562 leukemia = test system: K-562 leukemia
KM12 colon = test system: KM12 colon
KM20L2 colon = test system: KM20L2 colon
LOX IMVI melanoma = test system: LOX IMVI melanoma
LXFL 529 NSCLC = test system: LXFL 529 NSCLC
M14 melanoma = test system: M14 melanoma
M19-MEL melanoma = test system: M19-MEL melanoma
MALME-3M melanoma = test system: MALME-3M melanoma
MOLT-4 leukemia = test system: MOLT-4 leukemia
NCI-H23 lung = test system: NCI-H23 lung
NCI-H460 lung = test system: NCI-H460 lung
OVCAR-3 ovarian = test system: OVCAR-3 ovarian
OVCAR-4 ovarian = test system: OVCAR-4 ovarian
OVCAR-5 ovarian = test system: OVCAR-5 ovarian
OVCAR-8 ovarian = test system: OVCAR-8 ovarian
RPMI-8226 leukemia = test system: RPMI-8226 leukemia
RXF 393 renal = test system: RXF 393 renal
RXF-631 renal = test system: RXF-631 renal
SF-268 CNS = test system: SF-268 CNS
SF-295 CNS = test system: SF-295 CNS
SF-539 CNS = test system: SF-539 CNS
SK-MEL-28 melanoma = test system: SK-MEL-28 melanoma
SK-MEL-5 melanoma = test system: SK-MEL-5 melanoma
SK-OV-3 ovarian = test system: SK-OV-3 ovarian
SN12C renal = test system: SN12C renal
SNB-19 CNS = test system: SNB-19 CNS
SNB-78 CNS = test system: SNB-78 CNS
SR leukemia = test system: SR leukemia
SW-620 colon = test system: SW-620 colon
TK-10 renal = test system: TK-10 renal
U251 CNS = test system: U251 CNS
UACC-257 melanoma = test system: UACC-257 melanoma
UACC-62 melanoma = test system: UACC-62 melanoma
UO-31 renal = test system: UO-31 renal
XF 498 CNS = test system: XF 498 CNS
CAKI-1 renal = test system: CAKI-1 renal
NCI-H226 lung = test system: NCI-H226 lung
NCI-H522 lung = test system: NCI-H522 lung
SNB-75 CNS = test system: SNB-75 CNS

Question: What does the source list for `COc1ccc(O)cc1C=O`?
Answer: TGI (786-0 renal): > 100 µM; TGI (A498 renal): > 100 µM; TGI (A549 NSCLC): > 100 µM; TGI (ACHN renal): > 100 µM; TGI (CCRF-CEM leukemia): > 100 µM; TGI (COLO 205 colon): > 100 µM; TGI (DLD-1 colon): > 100 µM; TGI (DMS 114 small cell lung): > 100 µM; TGI (DMS 273 small cell lung): > 100 µM; TGI (EKVX NSCLC): > 100 µM; TGI (HCC-2998 colon): > 100 µM; TGI (HCT-116 colon): > 100 µM; TGI (HCT-15 colon): > 100 µM; TGI (HL-60(TB) leukemia): 54.9 µM; TGI (HOP-18 NSCLC): > 100 µM; TGI (HOP-62 NSCLC): > 100 µM; TGI (HOP-92 NSCLC): > 100 µM; TGI (HT29 colon): > 100 µM; TGI (IGROV1 ovarian): > 100 µM; TGI (K-562 leukemia): > 100 µM; TGI (KM12 colon): > 100 µM; TGI (KM20L2 colon): > 100 µM; TGI (LOX IMVI melanoma): > 100 µM; TGI (LXFL 529 NSCLC): > 100 µM; TGI (M14 melanoma): > 100 µM; TGI (M19-MEL melanoma): > 100 µM; TGI (MALME-3M melanoma): > 100 µM; TGI (MOLT-4 leukemia): > 100 µM; TGI (NCI-H23 lung): > 100 µM; TGI (NCI-H460 lung): > 100 µM; TGI (OVCAR-3 ovarian): > 100 µM; TGI (OVCAR-4 ovarian): > 100 µM; TGI (OVCAR-5 ovarian): > 100 µM; TGI (OVCAR-8 ovarian): > 100 µM; TGI (RPMI-8226 leukemia): > 100 µM; TGI (RXF 393 renal): > 100 µM; TGI (RXF-631 renal): > 100 µM; TGI (SF-268 CNS): > 100 µM; TGI (SF-295 CNS): > 100 µM; TGI (SF-539 CNS): > 100 µM; TGI (SK-MEL-28 melanoma): > 100 µM; TGI (SK-MEL-5 melanoma): > 100 µM; TGI (SK-OV-3 ovarian): > 100 µM; TGI (SN12C renal): > 100 µM; TGI (SNB-19 CNS): > 100 µM; TGI (SNB-78 CNS): > 100 µM; TGI (SR leukemia): 92.3 µM; TGI (SW-620 colon): > 100 µM; TGI (TK-10 renal): > 100 µM; TGI (U251 CNS): > 100 µM; TGI (UACC-257 melanoma): > 100 µM; TGI (UACC-62 melanoma): > 100 µM; TGI (UO-31 renal): > 100 µM; TGI (XF 498 CNS): > 100 µM

Question: For `CCOC(=O)C1N(S(=O)(=O)c2ccc(C)cc2)CCC12C(c1ccc(OC)c(OC)c1)=Nc1ccccc12` (centres undefined), which TGI (786-0 renal) is on record?
Answer: The TGI was over 100 µM.

Question: What about the TGI (A498 renal) of the same compound?
Answer: Its TGI is over 100 µM.

Question: And the TGI (A549 NSCLC)?
Answer: Its TGI is over 100 µM.

Question: And the TGI (ACHN renal)?
Answer: The TGI was over 100 µM.

Question: What about the TGI (CAKI-1 renal) of the same compound?
Answer: The TGI was over 100 µM.

Question: And the TGI (CCRF-CEM leukemia)?
Answer: The TGI was over 100 µM.

Question: And the TGI (COLO 205 colon)?
Answer: Its TGI is over 100 µM.

Question: What about the TGI (DLD-1 colon) of the same compound?
Answer: The TGI was over 100 µM.

Question: What about the TGI (DMS 114 small cell lung) of the same compound?
Answer: The TGI was over 100 µM.

Question: And the TGI (DMS 273 small cell lung)?
Answer: The TGI was over 100 µM.

Question: What about the TGI (EKVX NSCLC) of the same compound?
Answer: The TGI was over 100 µM.

Question: And the TGI (HCC-2998 colon)?
Answer: Its TGI is over 100 µM.

Question: What about the TGI (HCT-116 colon) of the same compound?
Answer: The TGI was over 100 µM.

Question: What about the TGI (HL-60(TB) leukemia) of the same compound?
Answer: The TGI was over 100 µM.

Question: What about the TGI (HOP-18 NSCLC) of the same compound?
Answer: The TGI was over 100 µM.

Question: And the TGI (HOP-62 NSCLC)?
Answer: The TGI was over 100 µM.

Question: And the TGI (HOP-92 NSCLC)?
Answer: Its TGI is over 100 µM.

Question: And the TGI (HT29 colon)?
Answer: Its TGI is over 100 µM.

Question: What about the TGI (IGROV1 ovarian) of the same compound?
Answer: Its TGI is over 100 µM.

Question: And the TGI (K-562 leukemia)?
Answer: The TGI was over 100 µM.

Question: And the TGI (KM12 colon)?
Answer: The TGI was over 100 µM.

Question: What about the TGI (KM20L2 colon) of the same compound?
Answer: The TGI was over 100 µM.

Question: And the TGI (LOX IMVI melanoma)?
Answer: The TGI was over 100 µM.

Question: What about the TGI (LXFL 529 NSCLC) of the same compound?
Answer: The TGI was over 100 µM.

Question: And the TGI (M14 melanoma)?
Answer: Its TGI is over 100 µM.

Question: What about the TGI (M19-MEL melanoma) of the same compound?
Answer: The TGI was over 100 µM.

Question: And the TGI (MALME-3M melanoma)?
Answer: Its TGI is over 100 µM.

Question: And the TGI (NCI-H226 lung)?
Answer: The TGI was over 100 µM.

Question: What about the TGI (NCI-H23 lung) of the same compound?
Answer: Its TGI is over 100 µM.

Question: And the TGI (NCI-H460 lung)?
Answer: Its TGI is over 100 µM.

Question: And the TGI (NCI-H522 lung)?
Answer: The TGI was over 100 µM.

Question: What about the TGI (OVCAR-3 ovarian) of the same compound?
Answer: Its TGI is over 100 µM.

Question: What about the TGI (OVCAR-4 ovarian) of the same compound?
Answer: Its TGI is over 100 µM.

Question: What about the TGI (OVCAR-5 ovarian) of the same compound?
Answer: Its TGI is over 100 µM.

Question: And the TGI (OVCAR-8 ovarian)?
Answer: Its TGI is over 100 µM.

Question: And the TGI (RPMI-8226 leukemia)?
Answer: Its TGI is over 100 µM.

Question: What about the TGI (RXF 393 renal) of the same compound?
Answer: The TGI was over 100 µM.

Question: And the TGI (RXF-631 renal)?
Answer: Its TGI is over 100 µM.

Question: And the TGI (SF-268 CNS)?
Answer: Its TGI is over 100 µM.

Question: And the TGI (SF-295 CNS)?
Answer: The TGI was over 100 µM.

Question: And the TGI (SF-539 CNS)?
Answer: The TGI was over 100 µM.

Question: And the TGI (SK-MEL-28 melanoma)?
Answer: The TGI was over 100 µM.

Question: And the TGI (SK-MEL-5 melanoma)?
Answer: The TGI was over 100 µM.

Question: What about the TGI (SK-OV-3 ovarian) of the same compound?
Answer: Its TGI is over 100 µM.

Question: And the TGI (SN12C renal)?
Answer: Its TGI is over 100 µM.

Question: What about the TGI (SNB-19 CNS) of the same compound?
Answer: The TGI was over 100 µM.

Question: What about the TGI (SNB-75 CNS) of the same compound?
Answer: The TGI was over 100 µM.

Question: And the TGI (SNB-78 CNS)?
Answer: The TGI was over 100 µM.

Question: And the TGI (SW-620 colon)?
Answer: The TGI was over 100 µM.

Question: And the TGI (TK-10 renal)?
Answer: The TGI was over 100 µM.

Question: And the TGI (U251 CNS)?
Answer: The TGI was over 100 µM.

Question: What about the TGI (UACC-257 melanoma) of the same compound?
Answer: Its TGI is over 100 µM.

Question: What about the TGI (UACC-62 melanoma) of the same compound?
Answer: The TGI was over 100 µM.

Question: And the TGI (UO-31 renal)?
Answer: The TGI was over 100 µM.

Question: And the TGI (XF 498 CNS)?
Answer: Its TGI is over 100 µM.
